Drawing on US9409905B2, “Antibacterial compounds and methods for use” (PTC THERAPEUTICS, INC., priority 2011, dated 2016), this text covers MIC for 7 molecules.

Experiment [1] concerns E. coli 25922. Description: Antibacterial activity, microbroth dilution MIC (Table 1). Particulars: Escherichia coli; microbroth dilution; control Gram-negative E. coli 25922 strain; read-out: MIC, 25922. The class given is cell-based, Escherichia coli. In short, it runs like this:
(§1)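 Broth microdilution; endpoint = no macroscopic growth; value = lowest inhibiting concn, μg/mL.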

The subject of experiment [2] is E. coli LZ3111. Description: Antibacterial activity, MIC, quinolone resistant strain (Table 2). The class given is cell-based. Particulars: Escherichia coli, LZ3111, read-out: MIC LZ3111. In short, it runs like this:
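Broth microdilution. Read-out: MIC in μg/mL, taken as lowest concentration with no macroscopically visible growth.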

Experiment [3] deals with Staphylococcus aureus (S. aureus) 29213. In words: Antibacterial activity, microbroth dilution MIC (Table 1). The class given is cell-based. Particulars: microbroth dilution, Gram-positive S. aureus 29213, read-out: MIC, 29213. In short, it runs like this: as §1
For experiment [4], the system named is Escherichia coli (E. coli) BAS849. The experiment is described as above. Particulars: microbroth dilution, super sensitive Gram-negative E. coli BAS849, read-out: MIC, BAS849. The class given is cell-based. In short, it runs like this: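 MIC (μg/mL) is taken as the lowest concentration with no macroscopically visible growth. Strains tested by microbroth dilution: Gram-positive S. aureus 29213, control Gram-negative E. coli 25922, and super-sensitive E. coli BAS849.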

The subject of experiment [5] is Pseudomonas aeruginosa (P. aeruginosa) 27853. Description: Antibacterial activity, MIC (Table 5). The class given is cell-based. Particulars: P. aeruginosa 27853, read-out: MIC, 27853. In short, it runs like this: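 Microbroth dilution; MIC (μg/mL) = lowest concentration with no macroscopically visible growth.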
Experiment [6] deals with Acinetobacter baumannii (A. baumannii) BAA747. Description: Antibacterial activity, MIC (Table 4). The class given is cell-based. Particulars: A. baumannii BAA747, read-out: MIC, BAA747. In short, it runs like this:
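Values are minimum inhibitory concentrations in μg/mL from broth microdilution, meaning no macroscopically visible growth at that concentration. Resistant MXX isolates are multi-drug resistant clinical strains.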

The subject of experiment [7] is E. coli ELZ4000. Description: Antibacterial activity, MIC, multi-drug resistant clinical isolate (Table 3). Particulars: Escherichia coli, ELZ4000, read-out: MIC ELZ4000. The class given is cell-based. From the text:
(§2) The antibacterial activity from a microbroth dilution method may be presented as the minimum inhibitory concentration (MIC in μg/mL). The MIC value is the lowest concentration of drug which prevents macroscopically visible growth under test conditions.
(§3) Antibacterial activity of test compounds against E. coli ELZ4000 and E. coli ELZ4251 multi-drug resistant clinical isolates is shown in Table 3.

The test system of experiment [8] is E. coli ELZ4251. The description is as above. Particulars: Escherichia coli. The class given is cell-based.
Text: as §2, §3

In brackets after ≈: the same amount, converted by molar mass. A value given as a limit tells only on which side of the number the result lay.

On to `CCc1c(-c2ccc3c(c2)cc(CN2C[C@H]4C[C@@H](NC)C[C@H]4C2)n3C)[nH]c(=O)c(C(=O)O)c1O` [Cpd 289, 5-ethyl-4-hydroxy-6-(1-methyl-2-(((3aR,5r,6aS)-5-(methylamino)hexahydrocyclopenta[c]pyrrol-2(1H)-yl)methyl)-1H-indol-5-yl)-2-oxo-1,2-dihydropyridine-3-carboxylic acid], for which the MIC in experiment [1] was 12.5 to 150 µg/mL (≈ 26.9 to 323 µM); in experiment [2], 3.5 to 12.5 µg/mL (≈ 7.53 to 26.9 µM); in experiment [3] it was 12.5 to 150 µg/mL (≈ 26.9 to 323 µM); in experiment [4], 1 to 3.5 µg/mL (≈ 2.15 to 7.53 µM); in experiment [5] it was 12.5 to 150 µg/mL (≈ 26.9 to 323 µM); in experiment [6] it was 12.5 to 150 µg/mL (≈ 26.9 to 323 µM). For the same molecule, the MIC in experiment [7] and in experiment [8] was 12.5 to 150 µg/mL (≈ 26.9 to 323 µM) in each case.
Regarding `CCc1c(-c2ccc3c(c2)cc(CNCCN(C)C)n3C)[nH]c(=O)c(C(=O)O)c1O` [Cpd 302, 6-(2-((2-(dimethylamino)ethylamino)methyl)-1-methyl-1H-indol-5-yl)-5-ethyl-4-hydroxy-2-oxo-1,2-dihydropyridine-3-carboxylic acid], the MIC in experiment [1] is 1 to 3.5 µg/mL (≈ 2.42 to 8.49 µM); in experiment [2], 3.5 to 12.5 µg/mL (≈ 8.49 to 30.3 µM); in experiment [3] it was 12.5 to 150 µg/mL (≈ 30.3 to 364 µM); in experiment [4] it was less than 1 µg/mL; in experiment [5] it was 12.5 to 150 µg/mL (≈ 30.3 to 364 µM); in experiment [6] it was 3.5 to 12.5 µg/mL (≈ 8.49 to 30.3 µM). In addition, the MIC was 12.5 to 150 µg/mL (≈ 30.3 to 364 µM) in experiment [7] and 3.5 to 12.5 µg/mL (≈ 8.49 to 30.3 µM) in experiment [8].
Take `Cn1c(CN2CCCC2)cc2cc(-c3[nH]c(=O)c(C(=O)O)c(O)c3C3CC3)ccc21` [Cpd 323, 5-cyclopropyl-4-hydroxy-6-(1-methyl-2-(pyrrolidin-1-ylmethyl)-1H-indol-5-yl)-2-oxo-1,2-dihydropyridine-3-carboxylic acid]: the MIC in experiment [1] was in the range of 12.5 to 150 µg/mL (≈ 30.7 to 368 µM); in experiment [2], 3.5 to 12.5 µg/mL (≈ 8.59 to 30.7 µM); in experiment [3] it was 12.5 to 150 µg/mL (≈ 30.7 to 368 µM); in experiment [4], 1 to 3.5 µg/mL (≈ 2.45 to 8.59 µM); in experiment [5], 12.5 to 150 µg/mL (≈ 30.7 to 368 µM); in experiment [6], 12.5 to 150 µg/mL (≈ 30.7 to 368 µM). The MIC in experiment [7] lay within 12.5 to 150 µg/mL (≈ 30.7 to 368 µM); in experiment [8] it was 3.5 to 12.5 µg/mL (≈ 8.59 to 30.7 µM).
For `Cn1c(CN2CCC2)cc2cc(-c3[nH]c(=O)c(C(=O)O)c(O)c3C3CC3)ccc21` [Cpd 324, 6-(2-(azetidin-1-ylmethyl)-1-methyl-1H-indol-5-yl)-5-cyclopropyl-4-hydroxy-2-oxo-1,2-dihydropyridine-3-carboxylic acid], the MIC in experiment [1] lay within 12.5 to 150 µg/mL (≈ 31.8 to 381 µM); in experiment [2], 3.5 to 12.5 µg/mL (≈ 8.9 to 31.8 µM); in experiment [3], 12.5 to 150 µg/mL (≈ 31.8 to 381 µM); in experiment [4], 1 to 3.5 µg/mL (≈ 2.54 to 8.9 µM); in experiment [5] it was 12.5 to 150 µg/mL (≈ 31.8 to 381 µM); in experiment [6] it was 12.5 to 150 µg/mL (≈ 31.8 to 381 µM). Moreover, the minimal inhibitory concentration (MIC) in experiment [7] and in experiment [8] was 3.5 to 12.5 µg/mL (≈ 8.9 to 31.8 µM) in each case.
For `Cn1c(CNCC2CC2)cc2cc(-c3[nH]c(=O)c(C(=O)O)c(O)c3C3CC3)ccc21` [Cpd 325, 5-cyclopropyl-6-(2-((cyclopropylmethylamino)methyl)-1-methyl-1H-indol-5-yl)-4-hydroxy-2-oxo-1,2-dihydropyridine-3-carboxylic acid], the MIC in experiment [1] is 12.5 to 150 µg/mL (≈ 30.7 to 368 µM); in experiment [2], 3.5 to 12.5 µg/mL (≈ 8.59 to 30.7 µM); in experiment [3], 12.5 to 150 µg/mL (≈ 30.7 to 368 µM); in experiment [4], 3.5 to 12.5 µg/mL (≈ 8.59 to 30.7 µM); in experiment [5] it was 12.5 to 150 µg/mL (≈ 30.7 to 368 µM); in experiment [6], 12.5 to 150 µg/mL (≈ 30.7 to 368 µM). The MIC lay within 3.5 to 12.5 µg/mL (≈ 8.59 to 30.7 µM) in experiment [7] and 1 to 3.5 µg/mL (≈ 2.45 to 8.59 µM) in experiment [8].
Turning to `Cn1c(CN2CCC2)cc2cc(-c3cc(O)c(C(=O)O)c(=O)[nH]3)ccc21` [Cpd 328, 6-(2-(azetidin-1-ylmethyl)-1-methyl-1H-indol-5-yl)-4-hydroxy-2-oxo-1,2-dihydropyridine-3-carboxylic acid], the MIC was 12.5 to 150 µg/mL (≈ 35.4 to 424 µM) in experiment [1]; 3.5 to 12.5 µg/mL (≈ 9.9 to 35.4 µM) in experiment [2]; 12.5 to 150 µg/mL (≈ 35.4 to 424 µM) in experiment [3]; 3.5 to 12.5 µg/mL (≈ 9.9 to 35.4 µM) in experiment [4]; 12.5 to 150 µg/mL (≈ 35.4 to 424 µM) in experiment [5]; 12.5 to 150 µg/mL (≈ 35.4 to 424 µM) in experiment [6]. In addition, the minimum inhibitory concentration (MIC) in experiment [7] and in experiment [8] was 12.5 to 150 µg/mL (≈ 35.4 to 424 µM) throughout.
Take `CCc1c(-c2ccc3c(c2)cc(CN2CCCCC2)n3C)[nH]c(=O)c(C(=O)O)c1N` [Cpd 331, 4-amino-5-ethyl-6-(1-methyl-2-(piperidin-1-ylmethyl)-1H-indol-5-yl)-2-oxo-1,2-dihydropyridine-3-carboxylic acid]: the MIC in experiment [1] was 3.5 to 12.5 µg/mL (≈ 8.57 to 30.6 µM); in experiment [2] it was 12.5 to 150 µg/mL (≈ 30.6 to 367 µM); in experiment [3] it was 12.5 to 150 µg/mL (≈ 30.6 to 367 µM); in experiment [4], less than 1 µg/mL; in experiment [5], 12.5 to 150 µg/mL (≈ 30.6 to 367 µM); in experiment [7], 12.5 to 150 µg/mL (≈ 30.6 to 367 µM). Besides, in experiment [8], the MIC was in the range of 12.5 to 150 µg/mL (≈ 30.6 to 367 µM).
